Source: patent US20140135327A1, “N- (2 -AMINOPHENYL) BENZAMIDE DERIVATIVES AS HISTONE DEACETYLASE INHIBITORS” (CANCER RESEARCH TECHNOLOGY LIMITED, priority 2011, published 2014)

Legend:
Type in all cases: biochemical
HDAC 1 = target: T1, HDAC 1 (Homo sapiens, UniProt Q13547); test: Fluorescence-based HDAC isoform assay with electrophoretic separation, HDAC 1; conditions: isolated 6×His-tagged isoform, 1 μM FAM-labeled acetylated peptide, 17 h at 25° C.
T1 construct: HDACs 1, 2, 3, 6, and 8 were expressed as full length fusion proteins; 6xHis; made in house; host or cells: Sf9 cells (baculovirus)
T1 sequence (Q13547 whole entry, species assumed, the tested form may be a part, canonical isoform): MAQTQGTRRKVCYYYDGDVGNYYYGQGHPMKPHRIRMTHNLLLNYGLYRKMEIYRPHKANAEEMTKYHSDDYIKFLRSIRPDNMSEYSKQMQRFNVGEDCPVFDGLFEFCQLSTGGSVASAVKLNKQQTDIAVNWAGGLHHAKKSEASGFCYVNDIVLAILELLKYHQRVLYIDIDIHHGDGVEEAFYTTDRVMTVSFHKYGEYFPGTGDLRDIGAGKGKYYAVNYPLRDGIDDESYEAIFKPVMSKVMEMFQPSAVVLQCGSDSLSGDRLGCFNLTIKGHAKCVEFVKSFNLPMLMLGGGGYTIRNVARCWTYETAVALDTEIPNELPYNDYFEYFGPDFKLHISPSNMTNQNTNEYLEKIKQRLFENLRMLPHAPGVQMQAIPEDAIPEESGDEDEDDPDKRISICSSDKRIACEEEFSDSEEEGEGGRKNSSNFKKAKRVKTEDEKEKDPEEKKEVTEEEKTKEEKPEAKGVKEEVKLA
Method: (§1) The inhibitory effects of the compounds of Examples 7 and 9 above on HDAC activity were determined using a fluorescence-based assay with electrophoretic separation of substrate and product carried out using a microfluidic system followed by quantitation of fluorescence intensity in the substrate and product peaks.
(§2) The assays were performed using isolated HDAC isoforms that had been expressed as 6×His-tagged fusion proteins in a baculovirus expression system in Sf9 cells. HDACs 1, 2, 3, 6, and 8 were expressed as full length fusion proteins. For HDAC-4 and 7 only catalytic domains were expressed (HDAC-4 CAT and HDAC-7 CAT). The HDAC10 fusion protein was expressed as a carboxy-terminal deletion of 38 amino acids (residues 632-669). HDAC3 was coexpressed with a fragment of the SMRT gene (residues 395-489) to generate enzymatically active protein. Purified proteins were incubated with 1 μM carboxyfluorescein (FAM)-labeled acetylated peptide substrate and test compound for 17 h at 25° C. in HDAC assay buffer containing 100 mM HEPES (pH 7.5), 25 mM KCl, 0.1% BSA, and 0.01% Triton X-100. […] Substrate and product were separated electrophoretically using a Caliper LabChip 3000 system with blue laser excitation and green fluorescence detection (CCD2). The fluorescence intensity in the substrate and product peaks was determined using the Well Analyzer software on the Caliper system. […]

HDAC 8 = target: T2, HDAC 8 (Homo sapiens, UniProt Q9BY41); test: Fluorescence-based HDAC isoform assay with electrophoretic separation, HDAC 8; conditions: isolated 6×His-tagged isoform, 1 μM FAM-labeled acetylated peptide, 17 h at 25° C.
T2 construct: HDACs 1, 2, 3, 6, and 8 were expressed as full length fusion proteins; 6xHis; made in house; host or cells: Sf9 cells (baculovirus)
T2 sequence (Q9BY41 1-377): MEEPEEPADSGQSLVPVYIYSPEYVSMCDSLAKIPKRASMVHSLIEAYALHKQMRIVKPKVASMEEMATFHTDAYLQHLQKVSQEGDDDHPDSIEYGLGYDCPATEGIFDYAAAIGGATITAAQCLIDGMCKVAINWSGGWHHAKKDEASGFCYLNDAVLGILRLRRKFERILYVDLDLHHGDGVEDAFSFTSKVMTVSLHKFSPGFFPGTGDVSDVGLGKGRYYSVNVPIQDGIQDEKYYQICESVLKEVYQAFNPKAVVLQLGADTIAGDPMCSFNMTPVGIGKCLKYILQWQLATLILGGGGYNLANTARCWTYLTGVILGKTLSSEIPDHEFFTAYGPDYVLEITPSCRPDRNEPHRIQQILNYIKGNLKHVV
Method: as §1, §2

HDAC 10 = target: T3, HDAC 10 (Homo sapiens, UniProt Q969S8); test: Fluorescence-based HDAC isoform assay with electrophoretic separation, HDAC 10; conditions: carboxy-terminal deletion of 38 amino acids, 1 μM FAM-labeled acetylated peptide, 17 h at 25° C.
T3 construct: 6xHis; made in house; host or cells: Sf9 cells (baculovirus)
T3 sequence (Q969S8 1-631): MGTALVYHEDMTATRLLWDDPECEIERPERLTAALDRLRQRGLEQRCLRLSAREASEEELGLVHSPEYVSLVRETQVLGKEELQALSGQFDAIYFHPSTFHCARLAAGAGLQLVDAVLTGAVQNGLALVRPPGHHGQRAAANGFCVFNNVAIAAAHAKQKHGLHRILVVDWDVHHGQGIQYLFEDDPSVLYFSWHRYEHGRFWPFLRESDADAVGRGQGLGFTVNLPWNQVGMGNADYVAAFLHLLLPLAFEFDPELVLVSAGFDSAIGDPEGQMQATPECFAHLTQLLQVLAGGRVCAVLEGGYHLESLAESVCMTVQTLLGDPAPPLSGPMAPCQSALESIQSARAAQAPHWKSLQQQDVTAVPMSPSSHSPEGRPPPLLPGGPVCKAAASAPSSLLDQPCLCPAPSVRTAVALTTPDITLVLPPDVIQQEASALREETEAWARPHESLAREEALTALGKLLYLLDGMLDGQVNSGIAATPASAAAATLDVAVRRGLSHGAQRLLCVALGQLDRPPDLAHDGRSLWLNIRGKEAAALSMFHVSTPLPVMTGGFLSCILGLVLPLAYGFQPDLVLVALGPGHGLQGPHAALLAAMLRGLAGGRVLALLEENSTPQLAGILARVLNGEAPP
Method: as §1, §2

SMILES	IC50 (HDAC 1)	IC50 (HDAC 8)	IC50 (HDAC 10)
C=C1CN(Cc2ccc(C(=O)Nc3ccccc3N)cc2)C(=O)c2ccccc21 [Example 7, N-(2-Aminophenyl)-4-[(4-methylene-1-oxo-3,4-dihydroisoquino-2(1H)-yl)methyl]benzamide]	8.7 µM	> 30 µM	8.04 µM
C=C1CN(Cc2ccc(C(=O)Nc3ccccc3N)cc2)C(CC(=O)O)c2ccccc21 (stereo not drawn) [Example 9, [2-(4-{[(2-Aminophenyl)amino]carbonyl}benzyl)-4-methylene-1,2,3,4-tetra hydroisoquinolin-1-yl]acetic acid]	> 30 µM	> 30 µM	> 30 µM
